From patent US20240408085A1, “COMPOUND FOR DEGRADATION OF BCL-2 FAMILY PROTEINS AND MEDICAL APPLICATION THEREOF” (XIZANG HAISCO PHARMACEUTICAL CO., LTD., priority 2021, published 2024) come the findings set out here.

One series deals with T1, BCL-xL proteins (Homo sapiens, UniProt Q07817).
T1 construct: degradation effect on the BCL-xL proteins in MOLT-4 cells; host or cells: MOLT-4
The experiment in a line: BCL-xL degradation activity in MOLT-4 cells (western blot, 16 h). The class given is cell-based. The procedure:
MOLT-4 cells are acute lymphoblastic leukemia cell lines in humans. The cells were purchased from ATCC. Culture conditions: RPMI-1640+10% FBS+1% penicillin-streptomycin solution. The cells were cultured in a 37° C., 5% CO2 incubator. The cells were plated in a 12-well plate, with 2×10^5 cells/well. After plating, compounds at different concentrations were added and cultured in a 37° C., 5% CO2 incubator for 16 h. After the completion of culture, the cells were harvested and RIPA lysis buffer (beyotime, Cat. P0013B) was added. The cells were lysed on ice for 15 minutes and centrifuged at 12000 rpm at 4° C. for 10 minutes. The supernatant protein samples were collected and the protein was quantified by using the BCA kit (Beyotime, Cat. P0009). Then the protein was diluted to 0.8 mg/mL. The expressions of BCL-xL (CST, Cat. 2764S), BCL-2 (CST, Cat. 15071S) and the internal reference β-actin (CST, Cat. 3700S) were detected using a fully automated western blot quantitative analyzer (Proteinsimple). The expression level of BCL-xL or BCL-2 relative to the internal reference was calculated by using Compass software, and the DC50 value was calculated by using GraphPad Prism 8.0 software according to formula (1), wherein the Proteinadministration denoted the relative expression level of BCL-xL or BCL-2 in administration groups at different doses, and the Proteinvehicle denoted the relative expression level of BCL-xL or BCL-2 in the vehicle control group.
Protein %=Proteinadministration/Proteinvehicle×100% formula (1)
In general terms: A western blot detects proteins with antibodies after separation by electrophoresis.

The next series has as its system MOLT-4 cells. The series is described as follows: Cell proliferation activity in MOLT-4 cells (72 h, cell viability luminescence). The class given is cell-based, human. The note with it: read-out: IC50 for the inhibition of MOLT-4 cell proliferation. Put shortly: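 Human acute lymphoblastic leukemia cells were seeded at 5×10^3 cells/well in RPMI-1640 with 10% FBS. They were treated with serially varied compound concentrations for 72 h at 37° C., 5% CO2. A luminescent viability reagent was used for read-out. IC50 was derived relative to vehicle control; maximum inhibition was the inhibition rate at the highest concentration.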

Another series concerns platelet (PLT). The experiment in a line: Effect on platelet (PLT) after single intravenous injection. The class given is in vivo, SD rats. The procedure:
Experimental animal: 78 SD rats, with an equal number of males and females, male (♂): 290-380 g, female (♀): 220-290 g, 8-10 weeks old, purchased from Zhejiang Vital River Laboratory Animal Technology Co., Ltd.
Experimental protocol: a clear solution was formulated using a vehicle ([…]). The animals were dosed via tail vein a single time (administration volume: 20 mL/kg; bolus injection period: about 4 minutes; recovery period: 7 days).

Like-named read-outs stand apart in the source and are kept apart here.

T1 sequence (Q07817 whole entry): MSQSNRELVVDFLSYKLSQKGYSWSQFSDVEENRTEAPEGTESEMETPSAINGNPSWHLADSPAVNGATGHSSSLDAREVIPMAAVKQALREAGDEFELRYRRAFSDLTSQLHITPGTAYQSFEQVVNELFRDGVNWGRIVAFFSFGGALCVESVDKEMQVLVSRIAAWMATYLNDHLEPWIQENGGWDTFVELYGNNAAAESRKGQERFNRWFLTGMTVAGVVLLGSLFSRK

In general, DC50 refers to the midpoint of the concentration-degradation curve. On to `Cc1ncsc1-c1ccc([C@H](C)NC(=O)[C@@H]2C[C@@H](O)CN2C(=O)[C@@H](NC(=O)CCCCCC(=O)N2C[C@H]3CN(CC[C@H](CSc4ccccc4)Nc4ccc(S(=O)(=O)NC(=O)c5ccc(N6CCN(CC7=C(c8ccc(Cl)cc8)CCC(C)(C)C7)CC6)cc5)cc4S(=O)(=O)C(F)(F)F)C[C@H]3C2)C(C)(C)C)cc1` [Compound 8, cis-(2S,4R)-1-((2S)-2-(7-(5-((R)-3-((4-(N-(4-(4-((4′-chloro-4,4-dimethyl-3,4,5,6-tetrahydro-[1,1′-biphenyl]-2-yl)methyl)piperazin-1-yl)benzoyl)sulfamoyl)-2-((trifluoromethyl)sulfonyl)phenyl)amino)-4-(phenylthio)butyl)hexahydropyrrolo[3,4-c]pyrrol-2(1H)-yl)-7-oxoheptanamido)-3,3-dimethylbutanoyl)-4-hydroxy-N—((S)-1-(4-(4-methylthiazol-5-yl)phenyl)ethyl)pyrrolidine-2-carboxamide], for which, at BCL-xL proteins, it took 8.8 nM to reach half-maximal degradation (DC50). For the same molecule, the IC50 in the series with MOLT-4 cells (Homo sapiens) was < 500 nM.
Taken in the same sequence, the figures for `Cc1ncsc1-c1ccc([C@H](C)NC(=O)[C@@H]2C[C@@H](O)CN2C(=O)[C@@H](NC(=O)CCCCCC(=O)N2C[C@H]3C[C@@H]2CN3CC[C@H](CSc2ccccc2)Nc2ccc(S(=O)(=O)NC(=O)c3ccc(N4CCN(CC5=C(c6ccc(Cl)cc6)CCC(C)(C)C5)CC4)cc3)cc2S(=O)(=O)C(F)(F)F)C(C)(C)C)cc1` [Compound 10, (2S,4R)-1-((S)-2-(7-((1R,4R)-5-((R)-3-((4-(N-(4-(4-((4′-chloro-4,4-dimethyl-3,4,5,6-tetrahydro-[1,1′-biphenyl]-2-yl)methyl)piperazin-1-yl)benzoyl)sulfamoyl)-2-((trifluoromethyl)sulfonyl)phenyl)amino)-4-(phenylthio)butyl)-2,5-diazabicyclo[2.2.1]heptan-2-yl)-7-oxoheptanamido)-3,3-dimethylbutanoyl)-4-hydroxy-N—((S)-1-(4-(4-methylthiazol-5-yl)phenyl)ethyl)pyrrolidine-2-carboxamide] were 3.7 nM and < 500 nM.
Molecule `Cc1ncsc1-c1ccc([C@H](C)NC(=O)[C@@H]2C[C@@H](O)CN2C(=O)[C@@H](NC(=O)CCCC(=O)N2C[C@H]3CN(CC[C@H](CSc4ccccc4)Nc4ccc(S(=O)(=O)NC(=O)c5ccc(N6CCN(CC7=C(c8ccc(Cl)cc8)CCC(C)(C)C7)CC6)cc5)cc4S(=O)(=O)C(F)(F)F)C[C@H]3C2)C(C)(C)C)cc1` [Compound 15, cis-(2S,4R)-1-((S)-2-(5-(5-((R)-3-((4-(N-(4-(4-((4′-chloro-4,4-dimethyl-3,4,5,6-tetrahydro-[1,1′-biphenyl]-2-yl)methyl)piperazin-1-yl)benzoyl)sulfamoyl)-2-((trifluoromethyl)sulfonyl)phenyl)amino)-4-(phenylthio)butyl)hexahydropyrrolo[3,4-c]pyrrol-2(1H)-yl)-5-oxopentanamido)-3,3-dimethylbutanoyl)-4-hydroxy-N—((S)-1-(4-(4-methylthiazol-5-yl)phenyl)ethyl)pyrrolidine-2-carboxamide] had a DC50 on BCL-xL proteins of 3.6 nM. For the same molecule, the IC50 in the series on MOLT-4 cells (Homo sapiens) was < 500 nM.
Taken in the same sequence, the figures for `Cc1ncsc1-c1ccc([C@H](C)NC(=O)[C@@H]2C[C@@H](O)CN2C(=O)[C@@H](NC(=O)CCCCCC(=O)N2CCN(CC[C@H](CSc3ccccc3)Nc3ccc(S(=O)(=O)NC(=O)c4ccc(N5CCN(CC6=C(c7ccc(Cl)cc7)CCC7(CC7)C6)CC5)cc4)cc3S(=O)(=O)C(F)(F)F)CC2)C(C)(C)C)cc1` [Compound 11, (2S,4R)-1-((S)-2-(7-(4-((R)-3-((4-(N-(4-(4-((6-(4-chlorophenyl)spiro[2.5]oct-5-en-5-yl)methyl)piperazin-1-yl)benzoyl)sulfamoyl)-2-((trifluoromethyl)sulfonyl)phenyl)amino)-4-(phenylthio)butyl)piperazin-1-yl)-7-oxoheptanamido)-3,3-dimethylbutanoyl)-4-hydroxy-N—((S)-1-(4-(4-methylthiazol-5-yl)phenyl)ethyl)pyrrolidine-2-carboxamide] were 5.3 nM and < 500 nM.
On to `Cc1ncsc1-c1ccc([C@H](C)NC(=O)[C@@H]2C[C@@H](O)CN2C(=O)[C@@H](NC(=O)CCCCCC(=O)N2CCN(CC[C@H](CSc3ccccc3)Nc3ccc(S(=O)(=O)NC(=O)c4ccc(N5CCN(CC6=C(c7ccc(Cl)cc7)CCC(C)(C)C6)CC5)cc4)cc3S(=O)(=O)C(F)(F)F)CC2)C(C)(C)C)cc1` [Control compound, DT2216, reference compound], for which, on BCL-xL proteins, the DC50 is > 20 nM. Further, the “Effect on PLT (↓ decrease)” value in the series with platelet (PLT) (SD rats ♀, 6 mg/kg single i.v., 4 h) is listed as “↓24%”; in the series on platelet (PLT) (SD rats ♀, 6 mg/kg single i.v., D2) it was “↓78%”; in the series on platelet (PLT) (SD rats ♀, 20 mg/kg single i.v., 4 h), “↓89%”; in the series with platelet (PLT) (SD rats ♀, 20 mg/kg single i.v., D2), “↓96%”; in the series on platelet (PLT) (SD rats ♀, 60 mg/kg single i.v., D8), “↓87%”; in the series on platelet (PLT) (SD rats ♂, 6 mg/kg single i.v., 4 h) it was “↓26%”. Further, the “Effect on PLT (↓ decrease)” value was “↓69%” in the series with platelet (PLT) (SD rats ♂, 6 mg/kg single i.v., D2); “↓81%” in the series with platelet (PLT) (SD rats ♂, 20 mg/kg single i.v., 4 h); “↓91%” with platelet (PLT) (SD rats ♂, 20 mg/kg single i.v., D2); “↓73%” in the series with platelet (PLT) (SD rats ♂, 60 mg/kg single i.v., D8).
On BCL-xL proteins, `Cc1ncsc1-c1ccc([C@H](C)NC(=O)[C@@H]2C[C@@H](O)CN2C(=O)[C@@H](NC(=O)CCCCCC(=O)N2C[C@H]3C[C@@H]2CN3CC[C@H](CSc2ccccc2)Nc2ccc(S(=O)(=O)NC(=O)c3ccc(N4CCN(CC5=C(c6ccc(Cl)cc6)CCC6(CC6)C5)CC4)cc3)cc2S(=O)(=O)C(F)(F)F)C(C)(C)C)cc1` [Compound 19, (2S,4R)-1-((S)-2-(7-((1R,4R)-5-((R)-3-((4-(N-(4-(4-((6-(4-chlorophenyl)spiro[2.5]oct-5-en-5-yl)methyl)piperazin-1-yl)benzoyl)sulfamoyl)-2-((trifluoromethyl)sulfonyl)phenyl)amino)-4-(phenylthio)butyl)-2,5-diazabicyclo[2.2.1]heptan-2-yl)-7-oxoheptanamido)-3,3-dimethylbutanoyl)-4-hydroxy-N—((S)-1-(4-(4-methylthiazol-5-yl)phenyl)ethyl)pyrrolidine-2-carboxamide] returned a DC50 of 10.7 nM. The IC50 in the series on MOLT-4 cells (Homo sapiens) was < 500 nM.
As for `Cc1ncsc1-c1ccc([C@H](C)NC(=O)[C@@H]2C[C@@H](O)CN2C(=O)[C@@H](NC(=O)CCCCCC(=O)N2C[C@H]3CN(CC[C@H](CSc4ccccc4)Nc4ccc(S(=O)(=O)NC(=O)c5ccc(N6CCN(CC7=C(c8ccc(Cl)cc8F)CCC(C)(C)C7)CC6)cc5)cc4S(=O)(=O)C(F)(F)F)C[C@H]3C2)C(C)(C)C)cc1` (relative stereo) [Compound 14, cis-(2S,4R)-1-((S)-2-(7-(5-((R)-3-((4-(N-(4-(4-((4′-chloro-2′-fluoro-4,4-dimethyl-3,4,5,6-tetrahydro-[1,1′-biphenyl]-2-yl)methyl)piperazin-1-yl)benzoyl)sulfamoyl)-2-((trifluoromethyl)sulfonyl)phenyl)amino)-4-(phenylthio)butyl)hexahydropyrrolo[3,4-c]pyrrol-2(1H)-yl)-7-oxoheptanamido)-3,3-dimethylbutanoyl)-4-hydroxy-N—((S)-1-(4-(4-methylthiazol-5-yl)phenyl)ethyl) pyrrolidine-2-carboxamide], it took 8.1 nM to reach half-maximal degradation on BCL-xL proteins (DC50). Also, the IC50 with MOLT-4 cells was < 500 nM.
